# Results taken from patent publication US20210358575A1, “A METHOD FOR DETERMINING THE EFFICACY OF TREATMENT WITH A COMBINATION OF DRUGS IN A SUBJECT DIAGNOSED WITH A DISEASE AND A METHOD FOR CLASSIFYING THE UTILITY OF DRUG COMBINATIONS IN TREATMENT OF SAID SUBJECT” (priority 2018, published 2021).
# Tests used:
# [1] = system: bone marrow samples of acute lymphoid leukemia (ALL) patients; assay: Ex vivo test of single drugs, EC50 compared with population distribution, acute lymphoid leukemia samples; format: cell-based, human; settings: ALL second line patient VIVIA-PMALL04001, 48 h
# Method: Bone marrow samples were obtained from three adult patients diagnosed with MM (VIVIA-PMMM010431, VIVIA-PMMM060111 and VIVIA-PMMM130061) and three adult patients diagnosed with ALL (VIVIA-PMALL07002, VIVIA-PMALL04001 and VIVIA-PMALL09001). Following the same experimental design as described for examples 1 and 3, said bone marrow samples were incubated for 48 h in well plates containing the single drugs shown in FIGS. 21 to 26. After the measurement of pathological populations by flow cytometry, pharmacological response parameters were estimated using population pharmacodynamic models. The most representative parameter of drug potency, the EC50, was used for a comparative analysis of the results provided by said bone marrow samples with respect to the statistical distribution of the same parameter observed in a population of samples and stored in the database. Such populations varied in size depending on the drug, being always over one hundred individuals in the case of MM and between 15 and 21 individuals in the case of ALL.
# [2] = system: first-line AML patients treated with CYT+IDA; assay: Validation of PM Test score vs clinical response in 112 first-line AML samples; format: in vivo, human; settings: 112 AML patients treated with CYT+IDA
# Description: The Precision Medicine (PM) Test as described ranks treatments by a score that estimates the activity of each treatment across a population of patient samples. Higher score represents more ex vivo sensitivity to treatment, while lower score represents less ex vivo sensitivity to treatment, i.e. more ex vivo resistance. A particular format of the results of the PM Test is shown in FIG. 19, panels A and B, wherein the ranking of treatments by activity score from 100%=best to 0%=worst is shown (score may be represented graphically using a colour/tone gradient or categorisation). The following 3 categories are identified:
# To validate the predictive power of these PM Test score results, the set of 123 samples treated homogeneously with CYT+IDA that were used in the correlation study of Example 1 were employed. Only 112 samples were used for validation. To evaluate the predictive power of the PM Test score, in the format shown in FIG. 19, panel A referring to a sensitive patient we can only use patients predicted to be sensitive or resistant. Treatments having intermediate scores are not considered sufficiently strong to predict any response. In the case of intermediate scores, other factors such as pharmacokinetics may be more important than the score. On the other hand, extreme scores are more likely to prevail over other factors such as pharmacokinetics.
# The set of data of 112 patients treated with CYT+IDA represents a 1st line treatment of AML with a 72% response rate. This means that 72% of these 112 patients achieved Complete Remission (CR) clinically. The majority of patients were sensitive, with fewer resistant patients. Thus, the statistics are improved by calculating the % of cases in which the PM Test score predicted patients to be sensitive to the ex vivo treatment. This means selecting only the treatments to which the patient is expected to be very sensitive, with scores between 80-100%. The % of accurate prediction of sensitive (responsive) patients is referred as the Negative Predicted Value (NPV).
# Samples whose score are between this variable threshold and 100% are analysed and predicted as sensitive because they have the top score. The results are shown for the monotherapies CYT and IDA, and for the combination treatment. Focus was placed on the combination treatment CYT+IDA that was administered to patients. Columns 8 to 10 of Table 4 show the results for the combined treatment CYT+IDA for different thresholds. The lowest threshold 55%, which means between 55 and 100%, identifies 93 out of the 112 samples, that would be predicted as sensitive. […] Thus, the prediction accuracy or NPV is 77/93=82.8%. As the threshold is increased (descending the 1st column of Table 4), the range of scores included is narrowed because the maximum is always 100%. Consequently, as the threshold is increased, the total number of samples included diminishes, reaching 0 samples at 100% (100-100%) and 18 samples at 95%. The decrease can be observed in the number of either sensitive or resistant samples (descending columns 8 and 9 of Table 4). […] Thus, the higher the score, the better the prediction (moreover, the intermediate sensitivity values provide less accurate prediction than the extreme values).
# [3] = system: live pathological cells (LPC) in bone marrow samples of AML patients; assay: PharmaFlow PM test: ex vivo drug sensitivity of whole bone marrow samples, population pharmacodynamic models; format: cell-based, human; settings: typical population value
# Method: Ex vivo drug sensitivity analysis was made using the PharmaFlow platform (previously termed ExviTech®) maintaining the bone marrow (BM) microenvironment. A minimum BM sample volume between one and two mL was collected by aspiration at AML diagnosis, before starting induction chemotherapy, and was processed by an automated method 24 hours after extraction. Samples were incubated with CYT, IDA and/or CYT+IDA for 48 hours. A more detailed description of the procedure has been published elsewhere (Bennett, et al 2014).
# Evaluation of drug response was done by counting the number of live pathological cells (LPC) remaining after incubation at increasing drug concentrations (Upton and Mould 2014). Dying cells (apoptosis) were excluded using Annexin V-FITC. Pharmacological responses were analyzed using PD population-based models (Upton and Mould 2014) which essentially perform the fitting of the dependent variable (natural log of LPC) in a non-linear mixed-effects model to derive typical population values (fixed effects) and the magnitude of inter-patient and residual variability (random effects).
# Model development was performed with the first-order conditional estimation method using interaction option with the software NONMEM (v7.2) (Beal, et al 1989-2001), according to the following equation: […]
# Where LPC0 (LCTi0) parameter refers to the number of LPC (LCTi) after incubation in the absence of drug, Emax represents the maximum fractional decrease in LPC that the drug can elicit, EC50, is the drug concentration exerting half of Emax, and γ is the parameter governing the steepness of the LPC vs drug concentration (C) curve. For interaction analysis a Surface Interaction model (Greco, et al 1995) was used to estimate the degree of synergy, referred as a parameter, between both drugs. Interpatient variability (IPV) associated to all parameters was described by means of an exponential model of the components of variance. An additive error structure was used for the residual variability. Population PD models were built with bone marrow (BM) samples from 473 patients that were incubated with CYT, 456 with IDA and 443 with CYT+IDA. Bayesian estimation methods were then used to retrieve individual patient parameters based on their available exposure-response measurements in conjunction with the PD population parameters.
# Individual response profiles normalized with respect to LPC0 (LCTi0), were integrated between the concentration points corresponding to the 20th and 80th percentiles of the distribution of estimated individual EC50 values, to obtain the values of the areas under the curves (AUCs) that were used as a descriptor of the ex vivo drug effect (i.e. the higher the AUC, the lower the cytotoxic effect (efficacy or potency) of the drug.
compound,measurement,setting,value
"CC(=O)[C@]1(O)Cc2c(O)c3c(c(O)c2[C@@H](O[C@H]2C[C@H](N)[C@H](O)[C@H](C)O2)C1)C(=O)c1ccccc1C3=O [Idarubicin, idarubicin]",ex vivo activity,[1],very potent activity
same,"% Sens. (percentage of patients sensitive to therapy, NPV)",[2]; PM Test score ≥55,84.8%
same,Res. (number of patients resistant to therapy),[2]; PM Test score ≥55,12
same,Sens. (number of patients sensitive to therapy),[2]; PM Test score ≥55,67
same,"% Sens. (percentage of patients sensitive to therapy, NPV)",[2]; PM Test score ≥60,84.9%
same,Res. (number of patients resistant to therapy),[2]; PM Test score ≥60,11
same,Sens. (number of patients sensitive to therapy),[2]; PM Test score ≥60,62
same,"% Sens. (percentage of patients sensitive to therapy, NPV)",[2]; PM Test score ≥65,87.0%
same,Res. (number of patients resistant to therapy),[2]; PM Test score ≥65,9
same,Sens. (number of patients sensitive to therapy),[2]; PM Test score ≥65,60
same,"% Sens. (percentage of patients sensitive to therapy, NPV)",[2]; PM Test score ≥70,86.6%
same,Res. (number of patients resistant to therapy),[2]; PM Test score ≥70,9
same,Sens. (number of patients sensitive to therapy),[2]; PM Test score ≥70,58
same,"% Sens. (percentage of patients sensitive to therapy, NPV)",[2]; PM Test score ≥75,85.2%
same,Res. (number of patients resistant to therapy),[2]; PM Test score ≥75,9
same,Sens. (number of patients sensitive to therapy),[2]; PM Test score ≥75,52
same,"% Sens. (percentage of patients sensitive to therapy, NPV)",[2]; PM Test score ≥80,85.7%
same,Res. (number of patients resistant to therapy),[2]; PM Test score ≥80,8
same,Sens. (number of patients sensitive to therapy),[2]; PM Test score ≥80,48
same,"% Sens. (percentage of patients sensitive to therapy, NPV)",[2]; PM Test score ≥85,86.5%
same,Res. (number of patients resistant to therapy),[2]; PM Test score ≥85,7
same,Sens. (number of patients sensitive to therapy),[2]; PM Test score ≥85,45
same,"% Sens. (percentage of patients sensitive to therapy, NPV)",[2]; PM Test score ≥90,88.4%
same,Res. (number of patients resistant to therapy),[2]; PM Test score ≥90,5
same,Sens. (number of patients sensitive to therapy),[2]; PM Test score ≥90,38
same,"% Sens. (percentage of patients sensitive to therapy, NPV)",[2]; PM Test score ≥95,96.8%
same,Res. (number of patients resistant to therapy),[2]; PM Test score ≥95,1
same,Sens. (number of patients sensitive to therapy),[2]; PM Test score ≥95,30
same,Res. (number of patients resistant to therapy),[2]; PM Test score ≥100,0
same,Sens. (number of patients sensitive to therapy),[2]; PM Test score ≥100,0
same,EC50,"[3]; Homo sapiens, AML bone marrow samples, 48 h incubation",87 nM
same,EMAX (maximum fractional decrease in LPC),"[3]; set to 1 in the model, 48 h",1
same,γ (steepness of LPC vs concentration curve),[3]; 48 h,1.14
